{"source": "patent US20070041904A1", "about": "“Peptides whose uptake by cells is controllable” (priority 2003, published 2007)", "key": {"[1]": {"tested_on": "MDA-MB-231 cells", "assay": "ACPP uptake in 3D Matrigel culture, MDA-MB-231", "type": "cell-based", "conditions": "Homo sapiens, 0.1 mM GM6001, read-out: inhibition of uptake of PLGLAG-containing ACPP", "procedure": "FIG. 56: MDA-MB-231 cells in 3-D culture make enough MMPs to take up ACPP over 24 hr. The left two columns show results with e9-XPLGLAG-r9-k(Cy5) without or with 0.1 mM GM6001, a general inhibitor of MMPs. GM6001 also reduces invasiveness of the cells, explaining why the cell cluster is smaller. The right two columns show e9-Xplglag-r9-k(Cy5) as a nonhydrolyzable negative control and r9-k(Cy5) as a positive control. […] Note that these ACPPs have no macromolecular carrier, because there is no need to hinder kidney excretion and because the macromolecular carriers seem to hinder diffusion through the Matrigel and into these organoids, which lack active circulation.\n3D tissue cultures in matrigel (FIG. 53) may also be used in the practice of this invention. Such 3D cultures are more realistic models than isolated tumor cells, and offer higher-resolution analysis than is possible in live animals. […]\nFor these studies, tricine gels, fluorescence imaging, and flow cytometry protocols were used to quantify cleavage and uptake of ACPPs into the 3D cultures. Fluorescence imaging allowed detection of total fluorescence of surface and intracellular peptide, whereas flow cytometry measured fluorescence remaining inside cells after clusters have been digested into single cells and stripped of surface binding via trypsinization. […]"}, "[2]": {"tested_on": "HT1080 xenografts and mouse tissues", "assay": "Biodistribution of radiolabeled ACPPs in mice with HT1080 xenografts", "type": "in vivo, nude mice", "procedure": "FIG. 50: Biodistribution of ^99mTc-labeled albumin-ACPP. Mice xenografted as in FIG. 49 were sacrificed at 6, 24, and 48 hr after injection, organs were dissected, weighed, and radioactivity counted within 2 hrs to obtain % injected dose (% ID)/g tissue as shown in the bar graph (means±s.d., n=4 per time point). The inset table gives the corresponding mean standardized uptake values (SUV) defined as animal weight×(% ID/g tissue).\nSerial scans were performed using the Biospace small animal planar scintigraphic imager. The % ID/g (% injected dose retained per gram of tissue) was measured by scintillation counting of tissues harvested post-mortem. The inventors have tested the above ACPPs and three other ^99mTc-labeled ACPPs: (70 KDa-dextran)-e9-XPLGLAG-r9-[DPK-^99mTc(CO)3], (murine serum albumin)-e9-XPLGLAG-r9-[DPK-^99mTc(CO)3], and (PAMAM generation 5 dendrimer)-e9-XPLGLAX-r9-[DPK-^99mTc(CO)3]. […] The tumor margins, however, appear relatively well-defined at earlier time points (see FIG. 48).\nBecause the ratio of tumor to liver uptake was at variance with the results obtained with fluorescent and magnetic labels and because of the limited literature on the use of DPK, the inventors tested whether the DPK chelator could be responsible for the affinity for normal tissues. Thus, the inventors synthesized and tested (70 KDa dextran)-e9-XPLGLAX-r9-(DOTA-^111In)."}, "[3]": {"tested_on": "MMP-9", "assay": "Fluorescence change upon enzymatic cleavage of self-quenching / FRET ACPPs", "type": "biochemical", "from_the_text": "(§1) Thus, such molecules may be administered in vivo, and are cleaved in vivo.\nACPPs with self-quenching fluorophores [Cy5-X-e6-XPLGLAG-r9-Xk(Cy5)] or FRET pairs [Cy7-X-e6-XPLGLAG-r9-Xk(Cy5)] were synthesized. […] The inventors have found these two substrates to be poorly soluble in physiological media, even though the inventors decreased the number of glutamate residues from nine to six so that the molecules would carry more net charge."}, "[4]": {"tested_on": "Enterokinase", "assay": "Peptide cleavage by enterokinase monitored by HPLC", "type": "biochemical", "conditions": "0.38 mM peptide stock, 1 U/μl enterokinase", "procedure": "10 μl 0.38 mM peptide dissolved in water stock solution was added to 10 μl 1 U/μl Enterokinase (Invitrogen, EKmax) and the cleavage progress was monitored by injecting 5 μl of the reaction mixture on HPLC monitored at 440 nm. The peptide was designed to be a substrate for enterokinase, with cleavage by enterokinase expected between the K and A residues. A High Performance Liquid Chromatography (HPLC) chromatogram of the peptide EDDDDKA-aca-R9-aca-C(Fl)-CONH2 (SEQ ID NO: 3) (before cleavage of linker portion between K and A) is illustrated in FIG. 6A. […] FIG. 6B illustrates the HPLC chromatogram of the peptide of FIG. 6A after cleavage by enterokinase. The new peak was collected and determined on a mass spectrometer. The determined mass corresponded (as expected) to cleavage between K and A in the sequence of EDDDDKA-aca-R9-aca-C(Fl)-CONH2. (SEQ ID NO: 3)\nACPP Cleavage by Enterokinase: 10 μl of a 0.38 mM peptide stock solution dissolved in water was mixed with 10 μl 1 U/μl enterokinase (Invitrogen) and incubated at 37° C. Enzymatic cleavage was monitored by injecting 5 μl of the reaction mixture on HPLC and observing either UVvis absorbance at 440 nm for fluorescein labeled or 650 nm for Cy5 labeled peptide. […] The new peaks were collected and their identities were determined by mass spectroscopy."}, "[5]": {"tested_on": "HT-1080 tumors and mouse tissues", "assay": "Standardized uptake values in tissues after peptide injection", "type": "in vivo, mice", "conditions": "1 hr after injection", "procedure": "Xenografts in Mice. Nude mice (age, 4-6 weeks) were injected s.c. with ≈10^6 HT-1080 cells. Once the tumors had reached ≈5-7 mm in size (typically 1-2 weeks later), animals were anesthetized with 100 mg/kg ketamine and 5 mg/kg midazolam), weighed, and injected with ≈100 μl of 60 μM peptide through the tail vein. Animals were then imaged at various times by using a Nikon f/1.2 camera lens in front of a cooled charge-coupled device camera (SenSys, Photometrics, Tucson, Ariz.). For longer lasting imaging studies, animals were allowed to wake up after 2 h of anesthesia and were reanesthetized at ≈4 and 6 hr for further data collection. Plasma half-lives were determined by the decrease in fluorescence intensity of ≈5-μl blood samples withdrawn periodically into heparinized capillaries. After imaging was ended, animals were killed with halothane, and organs of interest were harvested and weighed. For frozen sectioning, tissues were added to OCT cryopreservative and frozen on dry ice and hexane. […] Cy5 fluorescence was imaged as described above. […] Two sets of standards (liver and kidney) were used to calibrate fluorescence intensity in terms of peptide concentration. From this calibration, the quantity of peptide in 30 mg of tissue for each organ was calculated. SUVs were calculated as the molality of peptide in the tissue divided by the total injected dose as mol/kg of body weight. […]"}, "[6]": {"tested_on": "tumor, kidney and liver of xenografted mice", "assay": "Cyclic ACPP tested in xenografted mice", "type": "in vivo", "procedure": "as §1\nTo generate cyclic peptides, the inventors synthesized cyclic[succinoyl-PLGLAG-c(11 KDa-mPEG)-e9-XPLGLAG-r9-K]-k(Cy5), which contains two cleavage sites. This cyclic ACCP was tested in xenografted mice. […] Thus, the cyclic substrate requiring two cleavages should favor the liver to an even greater extent. One of skill in the art would recognize that once peptide sequences (preferably two distinct ones) were obtained that individually are preferentially cleaved in the tumor over the liver, then the two-cut ACPPs would become advantageous for the practice of this invention."}}, "data": [{"molecule": "CNC(=O)[C@H](Cc1c[nH]c2ccccc12)NC(=O)[C@@H](CC(=O)NO)CC(C)C", "note": "[GM6001]", "values": [{"measurement": "inhibition at 100 µM", "setting": "[1]", "value": "~50", "unit": "%"}]}, {"molecule": "(murine serum albumin)-e9-XPLGLAG-r9-[DPK-^99mTc(CO)3]", "values": [{"measurement": "tumor uptake", "setting": "[2]; HT1080 xenograft", "value": "1-3 % ID/g"}, {"measurement": "liver uptake", "setting": "[2]; mouse, in vivo", "value": "12-18 % ID/g"}]}, {"molecule": "Cy5-X-e6-XPLGLAG-r9-Xk(Cy5)", "values": [{"measurement": "increase of fluorescence intensity upon cleavage by MMP-9", "setting": "[3]", "value": 3.9, "unit": "fold"}]}, {"molecule": "Cy7-X-e6-XPLGLAG-r9-Xk(Cy5)", "values": [{"measurement": "increase in ratio of 650 to 770 nm emissions upon cleavage", "setting": "[3]; FRET substrate", "value": "6.6 -fold"}]}, {"molecule": "EDDDDKA-aca-R9-aca-C(Fl)-CONH2 (EDDDDKAXRRRRRRRRRXX; aminocaproic linkers, fluorescein, C-terminal amide; Description of Artificial Sequence:peptide designed to be substrate for enterokinase; Xaa = aminohexanoic acid (aminocaproic acid); Xaa = cysteinamide modified by fluorescein (Fl))", "values": [{"measurement": "time to almost complete cleavage by enterokinase", "setting": "[4]", "value": 15, "unit": "min"}]}, {"molecule": "[11-kDa PEG]-X-e9-XPLG*LAG-r9-Xk(Cy5)", "values": [{"measurement": "tumor SUV ratio cleavable vs control", "setting": "[5]", "value": 3.1}]}, {"molecule": "cyclic[succinoyl-PLGLAG-c(11 KDa-mPEG)-e9-XPLGLAG-r9-K]-k(Cy5)", "values": [{"measurement": "decrease of tumor signal vs linear peptide", "setting": "[6]; compared to linear peptide with single cleavage site", "value": 2, "unit": "factor"}, {"measurement": "increase of liver signal vs linear peptide", "setting": "[6]; mouse, in vivo", "value": "~10", "unit": "factor"}]}]}
